The source of these data is patent publication US8399430B2, “Alkylated semi synthetic glycosaminoglycosan ethers, and methods for making and using thereof” (University of Utah Research Foundation, priority 2008, dated 2013).

One data set concerns RAGE. The experiment in a line: CML-BSA-induced RAGE expression in ARPE-19 cells (immunoblot). Type of data set: cell-based, human. The note with it: cells grown on CML-BSA. The source says:
Activated complement and RAGE induce angiogenic and pro-inflammatory signaling in cultured RPE cells. Experiments studying the biology of RAGE in cultured RPE cells using the ARPE-19 human RPE cell line were consucted. As shown in immunoblots (FIG. 17), ARPE-19 cells express at least 4 isoforms of RAGE ranging from 45-50 kDa in cell lysates, and secrete these isoforms into conditioned media. […] Because RAGE ligation activates the transcription factor NF-κB, enhanced expression of RAGE greatly promotes pro-inflammatory signaling. […] This would prevent “feed-forward” pro-inflammatory increases in RAGE expression itself by RAGE ligation.
On the technique in general: In western blotting, separated proteins are transferred to a membrane and probed.

The target in a further data set is T1, P-Selectin/PSGL (Homo sapiens, UniProt P16109).
T1 construct: purchased R&D Systems (Minneapolis, Minn.)
T1 sequence (P16109 with tags, fused parts or gaps limits assumed): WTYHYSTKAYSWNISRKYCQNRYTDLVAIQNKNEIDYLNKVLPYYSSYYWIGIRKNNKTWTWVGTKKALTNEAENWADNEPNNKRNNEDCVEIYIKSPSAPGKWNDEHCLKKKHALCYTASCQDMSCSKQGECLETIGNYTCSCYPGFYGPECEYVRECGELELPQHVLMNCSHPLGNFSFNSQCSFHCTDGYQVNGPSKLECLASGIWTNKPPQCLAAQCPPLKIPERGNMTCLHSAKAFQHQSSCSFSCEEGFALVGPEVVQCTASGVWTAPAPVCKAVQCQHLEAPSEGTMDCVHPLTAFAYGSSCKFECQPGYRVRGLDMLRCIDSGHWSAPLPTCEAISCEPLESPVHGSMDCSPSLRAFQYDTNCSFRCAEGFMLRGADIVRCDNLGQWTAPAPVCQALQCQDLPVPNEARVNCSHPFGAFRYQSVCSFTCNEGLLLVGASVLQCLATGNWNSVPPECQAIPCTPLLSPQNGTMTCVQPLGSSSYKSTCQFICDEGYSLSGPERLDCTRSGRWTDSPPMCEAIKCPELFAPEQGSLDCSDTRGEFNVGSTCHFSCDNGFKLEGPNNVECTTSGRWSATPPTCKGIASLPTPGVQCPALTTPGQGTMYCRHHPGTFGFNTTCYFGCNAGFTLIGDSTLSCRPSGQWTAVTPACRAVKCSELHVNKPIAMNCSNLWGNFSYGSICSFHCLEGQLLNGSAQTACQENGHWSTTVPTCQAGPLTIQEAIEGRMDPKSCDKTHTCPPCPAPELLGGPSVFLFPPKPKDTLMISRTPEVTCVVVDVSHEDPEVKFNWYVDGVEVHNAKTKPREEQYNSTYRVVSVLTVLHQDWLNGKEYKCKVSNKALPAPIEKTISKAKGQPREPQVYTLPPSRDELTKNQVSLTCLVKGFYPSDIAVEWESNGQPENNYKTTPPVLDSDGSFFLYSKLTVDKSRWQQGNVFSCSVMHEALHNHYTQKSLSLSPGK
The experiment in a line: U937 monocyte binding to P-selectin (cell binding assay). The note with it: Table 2; U937 binding to P-selectin-Fc. The procedure:
(§1) Cell Binding Assays. The effect of SAGEs on binding of U937 monocytes to P-selectin or RAGE was studied in high-bind micro plates coated with 8 μg/ml protein A ([…]) in 0.2 M carbonate-bicarbonate buffer (pH 9.4). Plates were washed with phosphate buffered saline containing 1% BSA (PBS-BSA), and P-selectin-Fc or RAGE-Fc chimera (50 μL containing 1 μg) was added to each well and incubated for 2 h at room temperature or overnight at 4° C., respectively. Following incubation, wells were washed twice with PBS-BSA. […] As a negative control, 50 μL of 10 mM EDTA was added to select wells to prevent cell binding through sequestration of calcium. At the end of the incubation period, 50 μL of U937 cells (10^5 cells/well, calcein-labeled according to manufacturer's instructions) were added to each well and plates were incubated an additional 30 min at room temperature. The wells were then washed thrice with PBS, and bound cells were lysed by addition of 100 μL of Tris-TritonX-100 containing buffer. Fluorescence was measured on a microplate reader using excitation of 494 nm and emission of 517 nm.

A further data set deals with ARPE-19 cells. The experiment in a line: AGE-induced apoptosis of ARPE-19 cells (Live/Dead stain). Type of data set: cell-based, human. The note with it: AGE-BSA 25 μM, 40 h, test substance 200 μM. As for the experimental part:
The ability of AGE products to induce RPE cell apoptosis was investigated. ARPE-19 cells were grown to confluence on round coverslips, then transferred to new dishes for exposure to 25 μM AGE-BSA for 40 h. Apoptosis was then assayed with Molecular Probes Fixable Live/Dead Cell Stain Kit (LI 1101, Eugene, Oreg.). […] Nuclei are stained […] with DAPI; dead cells are stained green. A. BSA control. Some dead cells are noted at the edges of the coverslip, but live and dead cells are interspersed at the interface. B. AGE-BSA (25 μM). Significant cell death is seen around the edges, and the boundary between live and dead cells is stark. C. AGE-BSA (25 μM)+ODSH (200 μM). […] D. AGE-BSA (25 μM)+P-OSMeHA (200 μM) (GM-11 1101). […] Apoptosis appeared to advance inward from the edges of cells cultured on round cover slips. RAGE is prominently expressed in RPE cells where it may be selectively expressed on the basal membrane as in other human epithelial cells. […] In contrast, AGE in drusen, which accumulates between retinal pigment epithelium and Bruch's membrane, would have ready access to basally located RAGE, optimally positioning AGE/RAGE signaling to mediate the localized RPE apoptosis that constitutes so-called “geographic atrophy” in age-related macular degeneration. […]

The target of the next data set is T2, human leukocyte elastase (Homo sapiens, UniProt P08246).
T2 sequence (P08246 30-267): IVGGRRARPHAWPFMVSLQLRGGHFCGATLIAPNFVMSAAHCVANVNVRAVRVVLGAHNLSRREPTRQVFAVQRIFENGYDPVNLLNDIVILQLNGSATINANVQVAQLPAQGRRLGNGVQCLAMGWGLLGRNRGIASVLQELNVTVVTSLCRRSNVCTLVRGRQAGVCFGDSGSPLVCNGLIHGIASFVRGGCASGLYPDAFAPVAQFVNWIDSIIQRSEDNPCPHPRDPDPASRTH
The experiment in a line: Human leukocyte elastase activity assay, chromogenic substrate. Type of data set: biochemical. The note with it: Table 2. The source says: Enzymatic assays. […] Nat Biotech 26:669-675, 2008).

The target of a further data set is T3, RAGE/CML-BSA (Homo sapiens, UniProt Q15109).
T3 construct: purchased R&D Systems (Minneapolis, Minn.)
T3 sequence (Q15109 with tags, fused parts or gaps limits assumed): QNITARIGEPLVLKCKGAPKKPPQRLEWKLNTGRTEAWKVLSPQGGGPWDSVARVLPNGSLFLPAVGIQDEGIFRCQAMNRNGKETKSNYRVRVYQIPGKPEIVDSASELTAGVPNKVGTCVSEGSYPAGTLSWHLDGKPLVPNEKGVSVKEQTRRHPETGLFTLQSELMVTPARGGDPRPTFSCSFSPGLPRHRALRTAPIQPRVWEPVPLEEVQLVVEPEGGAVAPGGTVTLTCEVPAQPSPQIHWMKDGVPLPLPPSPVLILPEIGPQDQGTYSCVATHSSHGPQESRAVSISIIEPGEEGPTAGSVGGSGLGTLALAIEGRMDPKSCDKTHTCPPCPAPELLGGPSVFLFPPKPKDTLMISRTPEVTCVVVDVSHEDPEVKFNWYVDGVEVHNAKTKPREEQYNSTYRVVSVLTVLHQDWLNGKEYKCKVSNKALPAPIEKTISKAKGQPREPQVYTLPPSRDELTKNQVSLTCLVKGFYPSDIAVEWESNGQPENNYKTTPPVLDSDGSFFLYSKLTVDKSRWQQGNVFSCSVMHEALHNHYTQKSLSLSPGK
Description: Solid phase binding assay, RAGE to CML-BSA. The note with it: Table 2. As for the experimental part: (§2) Solid phase binding assays. Solid phase binding assays were used to study the ability of SAGEs to inhibit RAGE binding to its ligands. For studies of the effect of SAGEs on RAGE binding to its ligands, polyvinyl 96-well plates were coated with 5 μg/well of specific ligand (CML-BSA, HMGB-I or S100b calgranulin). Plates were incubated overnight at 4° C. and washed thrice with PBS-0.05% Tween-20 (PBST). Separately, RAGE-Fc chimera (100 μL containing 0.5 μg/ml in PBST-0.1% BSA) was incubated with an equal volume of serially diluted SAGEs (0.001 to 1,000 μg/ml in PBST-BSA) overnight at 4° C. The following day, 50 μL of RAGE-SAGE mix was transferred to each respective ligand-coated well and incubated at 37° C. for 2 h. Wells were then washed four times with PBST. To detect bound RAGE, 50 μL of anti-RAGE antibody (0.5 μg/ml) was added to each well, the mixture was incubated for 1 h at room temperature, and wells were washed again four times with PBST. Horse-radish peroxidase conjugated secondary antibody (1:10,000 antibody dilution in PBST; 50 μL per well) was added, wells were incubated for 1 h at room temperature, and then washed once with PBST. A colorimetric reaction was initiated by addition of 50 μL of tetramethyl benzidine chromogen (TMB single solution chromogen) and terminated after 15 min by addition of 50 μL of 1 N HCl. Absorbance at 450 nm was read using an automated microplate reader.

For the next data set, the target named is T4, RAGE/HMGB1 (Homo sapiens, UniProt Q15109).
T4 construct: purchased R&D Systems (Minneapolis, Minn.)
T4 sequence (Q15109 with tags, fused parts or gaps limits assumed): as above
Description: Solid phase binding assay, RAGE to HMGB-1 (amphoterin). The note with it: Table 2. The procedure: as §2

A further data set concerns the target T5, RAGE/Mac-1 (Homo sapiens, UniProt Q15109).
T5 construct: purchased R&D Systems (Minneapolis, Minn.)
Description: U937 monocyte binding to RAGE (cell binding assay). The note with it: Table 2; U937 binding to RAGE-Fc. The procedure:
as §1

Another data set concerns the target T6, RAGE/S100B (Homo sapiens, UniProt Q15109).
T6 construct: purchased R&D Systems (Minneapolis, Minn.)
The experiment in a line: Solid phase binding assay, RAGE to S100b calgranulin. The note with it: Table 2. The procedure:
as §2

For another data set, the system named is Xa. Description: Anti-Xa anticoagulant activity. Type of data set: biochemical.
In data set [1] the target is T7, Hageman factor (Factor XII) (Homo sapiens, UniProt P00748).
T7 sequence (P00748 20-615): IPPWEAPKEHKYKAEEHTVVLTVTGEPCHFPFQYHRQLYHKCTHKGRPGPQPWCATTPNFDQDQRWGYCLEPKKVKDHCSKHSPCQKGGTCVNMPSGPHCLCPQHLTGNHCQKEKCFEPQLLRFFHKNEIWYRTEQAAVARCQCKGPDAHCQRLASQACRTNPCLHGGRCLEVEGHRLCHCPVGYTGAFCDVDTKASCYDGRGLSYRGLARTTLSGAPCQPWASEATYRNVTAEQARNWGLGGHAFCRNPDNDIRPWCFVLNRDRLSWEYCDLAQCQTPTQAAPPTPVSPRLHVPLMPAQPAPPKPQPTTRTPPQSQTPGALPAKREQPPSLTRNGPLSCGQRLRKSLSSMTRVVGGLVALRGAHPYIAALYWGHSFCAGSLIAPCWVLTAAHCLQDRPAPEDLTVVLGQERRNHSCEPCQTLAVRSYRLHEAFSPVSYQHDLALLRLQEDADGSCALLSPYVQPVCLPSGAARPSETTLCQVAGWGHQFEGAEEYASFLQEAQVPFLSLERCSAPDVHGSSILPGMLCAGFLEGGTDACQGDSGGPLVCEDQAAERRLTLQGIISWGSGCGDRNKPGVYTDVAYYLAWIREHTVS
Description: Activation of Hageman factor (Factor XII) in pooled human plasma, amidolytic activity. The note with it: Table 2, table line reads IC50 values.
Description: Enzymatic assays. […] Pooled human plasma (5 μl) was incubated with 100 μl of SAHA (0.1 to 1000 μg/ml) in 0.05 M HEPES containing Triton X-100 for 5 min at 5° C.
SAGEs were screened for their ability to stimulate intrinsic coagulation (activation of Hageman factor). Pooled human plasma was incubated with heparin or low molecular weight (Lmw) sulfated and fluoroalkylated HAs (Lmw-OSFHA-1, Lmw-OSFHA-2) and amidolytic activity was determined using the substrate D-cyclohydrotyrosyl-Gly-Arg-p-NA.

A further data set concerns IIa. Description: Anti-IIa anticoagulant activity. It is filed as biochemical.

Entries after “also recorded” stand apart in the source; their conditions may differ.

T5 sequence (Q15109 with tags, fused parts or gaps limits assumed): as the sequence (Q15109 with tags, fused parts or gaps limits assumed) above
T6 sequence (Q15109 with tags, fused parts or gaps limits assumed): as the sequence (Q15109 with tags, fused parts or gaps limits assumed) above

Consider “2-0, 3-0 desulfated heparin [ODSH, reference compound]”, for which the “up-regulation of RAGE expression” value in the data set with RAGE is recorded as “prevented up-regulation of RAGE expression”. The substance also registered a P-Selectin/PSGL on P-Selectin/PSGL of 1.1 µg/mL. In the data set on ARPE-19 cells, the AGE-induced apoptosis result is given as “Apoptosis is reduced; also recorded: inhibited”. In addition, at human leukocyte elastase, the “Leukocyte Elastase” value turned out to be 0.22 µg/mL. Besides, the RAGE/CML-BSA on RAGE/CML-BSA worked out at 8.6 µg/mL. The RAGE/HMGB1 on RAGE/HMGB1 amounted to 0.23 µg/mL. This substance also displayed an RAGE/Mac-1 on RAGE/Mac-1 of 0.09 µg/mL. At RAGE/S100B, the RAGE/S100B is 4.2 µg/mL.

Consider Heparin [reference compound], for which the anti-Xa anticoagulant activity in the data set with Xa was determined as 150 U/mg. Also, at P-Selectin/PSGL, the P-Selectin/PSGL was found to be 0.3 µg/mL. Moreover, on human leukocyte elastase, the “Leukocyte Elastase” value is 0.21 µg/mL. The “Hageman Factor” value in data set [1] was 0.4 µg/mL. At RAGE/CML-BSA, the RAGE/CML-BSA was found to be 0.39 µg/mL. The anti-IIa anticoagulant activity with IIa stood at 150 U/mg. On RAGE/HMGB1, this substance came in with an RAGE/HMGB1 of 0.04 µg/mL. For the same substance, at RAGE/Mac-1, the RAGE/Mac-1 came to 0.11 µg/mL. This substance also yielded an RAGE/S100B on RAGE/S100B of 1.29 µg/mL.
